# According to paper PMC9649909, “Wnt-pathway inhibitors with selective activity against triple-negative breast cancer: From thienopyrimidine to quinazoline inhibitors” (Frontiers in Pharmacology, 2022):
# Where two headings read alike, the source gives them in different places.
# Columns and labels:
# [1] = system: MDA-MB-468 TNBC cell line; assay: MTT survival assay MDA-MB-468; type: cell-based; settings: Homo sapiens, MDA-MB-468; Table S2
# Experimental: (§1) Indicated TNBC cell lines were detached and resuspended at 120,000 cells/ml and added into each well of a transparent 384-well plate in the final volume of 20 µl/well. The cells were maintained in DMEM containing 10% FBS at 37°C, 5% CO2 overnight. Next day, the medium in each well was replaced by 40 μl of the fresh one containing the indicated concentrations of compounds. In case of drug combination experiments, each compound dilution was delivered in corresponding well in 20 μl of medium. […] After incubation for 3–4 days, depending on the cell line, the medium in each well was replaced by 25 μl of 0.5 mg/ml Thiazolyl blue solution in 1xPBS following by incubation for 3 h at 37°C. Then the solution was removed and 25 μl DMSO was added into each well. Absorbance at 510 nm was measured in a Tecan Infinite M200 PRO plate reader.
# [2] = system: MDA-MB-231 TNBC cell line; assay: MTT survival assay MDA-MB-231; type: cell-based; settings: for IC50: Homo sapiens
# Experimental: as §1
# in vitro = settings: human
# Experimental: (§2) The simplicity of the scaffold combined with synthetic accessibility allows building a library of compounds and performing structure activity relationship (SAR) studies of the three main parts of the molecule: the top part, the linker and the core (Figure 2).
# (§3) The synthesized compounds were used to explore SAR of three defined areas of investigation (Figure 2). All compounds were tested in the HCC1395 TNBC cell line using the GSK3β inhibitor to induce β-catenin signaling since 4a acted downstream of GSK3β (Figure 2). Both inhibition of β-catenin signaling measured by the TopFlash reporter and cytotoxicity measured by the Renilla reporter were assessed.
# (§4) The Wnt3a or CHIR99021-stimulated luciferase activity in HCC1395 TNBC cell line stably transfected with the TopFlash reporter was analyzed essentially as described for the BT-20 TNBC cell line ([Shaw et al., 2019b]; [Koval et al., 2021]). Reporter cells were seeded at 10,000 cells/well in a white opaque 384-well plate in the final volume of 20 μl of DMEM medium supplemented with 10% FCS. The cells were maintained incubated at 37°C, 5% CO2 overnight for attachment. Subsequently, they were transfected by a plasmid encoding constitutively expressed Renilla luciferase under the CMV promoter overall as described in the manufacturer’s protocol using 12 μg/ml of DNA and 40 μl/ml XtremeGENE nine reagent. The next day, the medium in each well was replaced with a 10 μl of fresh medium containing compound of interest, and, after 1 h of preincubation with the compounds, additional 10 μl of medium supplemented with Wnt3a [purified as described ([Willert et al., 2003]; [Koval and Katanaev, 2011])] or CHIR99021 were added creating respective final concentrations of 2.5 μg/ml or 5 μM of each. In case of other signal transduction reporters, no additional stimulation was performed. Compound dilutions were prepared by serial dilution in DMSO and diluted with the amount of medium necessary to obtain their final concentrations indicated on the figures and tables and maintain concentration of DMSO of 0.5% in all assay points. After overnight incubation, the supernatant in each well was removed, and the luciferase activity was measured as described ([Dyer et al., 2000]; [Huber et al., 2021]; [Pellissier et al., 2021]). The culture medium was completely removed from all wells of the plate. Finally, the luciferase activity of the firefly and Renilla luciferases was detected sequentially in individual wells of a 384-well plate through injection of corresponding measurement solutions and immediate reading (400 ms integration time) in Infinite M Plex multifunctional plate reader with injection module.
# HCC1806 TNBC cell line = assay: MTT survival assay HCC1806; type: cell-based; settings: Table S2; for IC50: Homo sapiens, HCC1806, read-out: MTT HCC1806 IC50
# Experimental: as §1
# HCC1395 TNBC cell line = assay: MTT survival assay HCC1395; type: cell-based; settings: Homo sapiens, HCC1395; Table S2; read-out: MTT HCC-1395 IC50
# Experimental: as §1
# [3] = system: non-cancerous breast epithelial cell line MCF10a; assay: MTT survival assay MCF10a; type: cell-based; settings: for IC50: Homo sapiens, MCF-10A
# Experimental: as §1
# [4] = system: β-catenin-dependent Wnt-pathway; assay: TopFlash luciferase reporter assay, CHIR99021-stimulated, HCC1395; type: cell-based; settings: for HCC1395 TopFlash Efficacy / Emax / IC50: stimulation with CHIR99021 (GSK3β inhibitor); for Emax / IC50: Homo sapiens; for Emax: read-out: HCC1395 TopFlash Efficacy; for IC50: read-out: HCC1395 TopFlash IC50; for fold improvement in the activity compared to 4a: TopFlash IC50 vs 4a
# Text: Both stimulations abolish formation of the destruction complex, a multiprotein complex consisting of Axin, adenomatous polyposis coli (APC), glycogen synthase kinase three beta (GSK3β), and casein kinase one alpha (CK1α). Upon inactivation of the complex, β-catenin accumulates in the cytoplasm and translocates into the nucleus where it interacts with transcription factors. These downstream events are quantified by a Luciferase transcription-based readout assay (TopFlash assay).
# BT-20 TNBC cell line = assay: MTT survival assay BT-20; type: cell-based; settings: Homo sapiens, BT-20; Table S2; read-out: MTT BT-20 IC50
# Experimental: as §1
# HCC1395 cells = assay: in vitro
# Experimental: as §2, §3, §4
# [5] = MDA-MB-231, Table S2, read-out: MTT MDA-MB-231 IC50
# [6] = Table S2, read-out: MTT MCF10 IC50
Structure (SMILES),IC50 [1] [nM],"IC50 [2, 5] [µM]",MTT MDA-MB-231 plateau ([2]; Table S2),IC50 (in vitro; HCC1395 Cytotoxicity IC50) [µM],IC50 (HCC1806 TNBC cell line) [µM],IC50 (HCC1395 TNBC cell line) [nM],"IC50 [3, 6] [µM]",HCC1395 TopFlash Efficacy ([4]; HCC1395) [%],"Emax ([4]; HCC1395, HCC1395) [%]","IC50 ([4]; HCC1395, HCC1395) [nM]",IC50 (BT-20 TNBC cell line) [µM],MTT MCF10 Comments ([3]; Table S2),fold improvement in the activity compared to 4a [4] [fold],MTT HCC1806 Comments (HCC1806 TNBC cell line),further results
"CN(CCc1ccccc1)c1ncnc2sccc12 [Compound 5j, N-methyl-N-phenethylthieno[2,3-d]pyrimidin-4-amine]",920,4.71,92.68,> 50,17.2,2070,1.53,100 ± 0,100,2040 ± 2550,1.63,–,–,–,"selectivity over the control cells (difference in IC50, MCF10a vs HCC1395) ([3]; MTT IC50 ratio MCF10a / HCC1395): less than 3 fold"
"Fc1ccc(CNc2ncnc3sccc23)cc1 [Compound 4g, N-(4-fluorobenzyl)thieno[2,3-d]pyrimidin-4-amine]",1460,25.4,100,> 50,2.37,1960,> 10,–,78.6 ± 29.8,4150 ± 910,1.63,Inactive,2,–,GSK HCC1395 Renilla Comments (HCC1395 cells): Non-toxic
"COc1ccccc1CNc1ncnc2sccc12 [Compound 4b, N-(2-methoxybenzyl)thieno[2,3-d]pyrimidin-4-amine]",11800,> 50,–,> 50,> 50,8170,33.2,40.7 ± 3.1,40.7,2790 ± 670,> 50,–,3,Inactive,"IC50 ([2]; MDA-MB-231, Figure 3B heatmap, read-out: IC50, μM (MDA-MB-231)): > 10 µM; IC50 ([3]; Figure 3B heatmap, read-out: IC50, μM (MCF10)): > 10 µM"
"Cc1cccc(CNc2ncnc3sccc23)c1 [Compound 4n, N-(3-methylbenzyl)thieno[2,3-d]pyrimidin-4-amine]",480,> 10,–,> 50,> 10,1050,> 10,–,52.9 ± 6.8,3760 ± 1900,4.72,Inactive,–,Inactive,MTT MDA-MB-231 Comments ([2]; Table S2): Inactive
"Clc1ccc(CNc2ncnc3ccccc23)cc1 [Compound 9e, N-(4-chloro)quinazolin-4-amine]",2220,26.9,100,–,11.4,920,> 10,–,–,–,9.6,–,–,–,"IC50 ([2]; MDA-MB-231, read-out: IC50, μM (MDA-MB-231)): > 10 µM; IC50 (in vitro): > 50 µM; Emax ([4]; HCC1395): 96 ± 5.7%; IC50 ([4]; HCC1395): 2180 ± 850 nM"
"Clc1ccc(CNc2ncnc3sccc23)cc1 [Compound 4j, N-(4-chlorobenzyl)thieno[2,3-d]pyrimidin-4-amine]",3930,45.3,92.63,> 50,26.2,1420,20.4,–,74.6 ± 12,3190 ± 1640,6.29,–,2,–,–
